Measurements as given in patent publication US8809498B2, “Pepstatin A derivatives” (priority 2008, dated 2014).
Starred links: 1 amine or outer side, 2 acyl side, 3 side chain; linkers in the order of their positions; H or OH if unused. Non-standard residues stand in square brackets, D forms with d. Residues, ends and D or L forms follow the SMILES beside them. *: point of attachment. Abu(4,4,4-F3) = N[C@@H](CC(F)(F)F)C(=O)O; Phe(4-F) = N[C@@H](Cc1ccc(F)cc1)C(=O)O; Phe(4-Me) = Cc1ccc(C[C@H](N)C(=O)O)cc1; X1 = CC(F)(F)C[C@H](N[*:1])C(=O)[*:2]; Sta = CC(C)C[C@H](N)[C@@H](O)CC(=O)O; Isovaleryl = CC(C)CC(=O)*; Nle = CCCC[C@H](N)C(=O)O; Orn = NCCC[C@H](N)C(=O)O; Dab = NCC[C@H](N)C(=O)O; Abu = CC[C@H](N)C(=O)O

What was measured:
Type in all cases: biochemical
Sap6 of Candida albicans = Sap6 of Candida albicans (Candida albicans, UniProt Q5AC08); test: Inhibition of proteolytic activity of Sap6 (resorufin-marked casein, fluorescence); conditions: for effect on Sap 6: versus pepstatin A
Sap6 of Candida albicans, sequence (Q5AC08 77-418): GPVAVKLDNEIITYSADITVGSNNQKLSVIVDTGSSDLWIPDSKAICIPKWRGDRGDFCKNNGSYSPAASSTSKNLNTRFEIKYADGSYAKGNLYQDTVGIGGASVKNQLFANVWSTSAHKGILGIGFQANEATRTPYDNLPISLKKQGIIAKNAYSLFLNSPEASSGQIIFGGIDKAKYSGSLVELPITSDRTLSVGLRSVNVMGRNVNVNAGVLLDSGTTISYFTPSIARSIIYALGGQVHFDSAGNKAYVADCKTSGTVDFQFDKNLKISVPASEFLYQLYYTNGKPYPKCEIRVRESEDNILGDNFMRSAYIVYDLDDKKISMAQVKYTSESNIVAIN
Method: (§1) For this purpose, that inhibitor concentration was determined in vitro at which the proteolytic activity of the enzyme or its velocity of metabolizing a substrate, respectively, was reduced for 50%.
(§2) The proteolytic activity of the tested Saps was determined at the pH optimum of those Saps. Resorufin-marked casein was used as substrate. Proteolysis of casein can be detected by an increase in fluorescence due to released resorufin (a fluorescence marker) by proteolysis.
(§3) Sap1, Sap3 and Sap6 of Candida albicans were independently dissolved in 2-(N-morpholino)ethanesulfonic acid (MES) having a concentration of 10 mmol/l and a pH of 6.5 resulting in enzyme solutions having a Sap concentration of 100 mmol/l. After one hour incubation at room temperature, 80 μl of a substrate solution comprising resorufin-marked casein in a sodium citrate buffer having a concentration of 500 mmol/l and a pH of 3.5 (in case of Sap3), 4.5 (in case of Sap1) and 5.0 (in case of Sap6) were added to 20 μl of enzyme solution. The resulting Sap concentration was 5 nmol/l. The resulting casein concentration was chosen such that the Saps could work in excess of substrate. Different Sap inhibitors were added, resulting in a final inhibitor concentration of 1 nmol/1, 2 nmol/1, 5 nmol/1, 10 nmol/l, nmol/l or 50 nmol/l in each case. One enzyme-substrate sample was left without addition of inhibitor. All experiments were performed in triplicate.
(§4) The mixture of enzyme and substrate or of enzyme, substrate and inhibitor was incubated at 37° C. under agitation at 300 rpm (rounds per minute) for 60 min in each case. Afterwards, 20 μl of a trichloroacetic acid solution (30%, w/v) were added. The mixture was placed on ice for 5 minutes and centrifuged afterwards for 3 min at 6000 rpm. The supernatant was removed.
(§5) To carry out fluorescence measurements, 100 μl of the supernatant were mixed with 100 μl Tris-HCl (trishydroxymethylaminomethane-HCl) having a concentration of 1 mol/l and a pH of 10.0. The fluorescence of this mixture was measured directly after adding Tris-HCl using an excitation wavelength of 530 nm and an emission wavelength of 590 nm on a CytoFluor 2350 apparatus (Millipore, Bedford, Mass., USA), wherein sensitivity was set to 2 and bandwidth was set to 7.
(§6) The average of three independent fluorescence measurements was calculated. The fluorescence of enzyme without inhibitor (i.e. inhibitor concentration of 0 nmol/l) was set to 100% enzyme activity. The activity of inhibited enzyme was calculated accordingly from the fluorescence of inhibited enzyme with respect to fluorescence of enzyme without inhibitor. Finally, the enzyme activity was plotted against the inhibitor concentration and the IC50 value was determined.

Sap3 of Candida albicans = Sap3 of Candida albicans (Candida albicans, UniProt P0CY29); test: Inhibition of proteolytic activity of Sap3 (resorufin-marked casein, fluorescence)
Sap3 of Candida albicans, sequence (P0CY29 59-398): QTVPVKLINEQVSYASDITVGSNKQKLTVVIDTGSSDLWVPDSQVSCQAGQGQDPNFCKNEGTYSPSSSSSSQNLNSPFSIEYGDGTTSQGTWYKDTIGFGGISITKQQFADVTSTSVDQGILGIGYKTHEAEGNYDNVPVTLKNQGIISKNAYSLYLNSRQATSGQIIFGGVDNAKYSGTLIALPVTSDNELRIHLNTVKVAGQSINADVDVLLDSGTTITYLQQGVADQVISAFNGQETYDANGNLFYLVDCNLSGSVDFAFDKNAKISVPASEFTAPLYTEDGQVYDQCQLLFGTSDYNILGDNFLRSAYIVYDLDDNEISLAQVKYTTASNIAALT
Method: as §1, §2, §3, §4, §5, §6

Sap5 = Sap5 (Candida albicans, UniProt P43094); test: Inhibition of proteolytic activity of Sap5
Sap5, sequence (P43094 77-418): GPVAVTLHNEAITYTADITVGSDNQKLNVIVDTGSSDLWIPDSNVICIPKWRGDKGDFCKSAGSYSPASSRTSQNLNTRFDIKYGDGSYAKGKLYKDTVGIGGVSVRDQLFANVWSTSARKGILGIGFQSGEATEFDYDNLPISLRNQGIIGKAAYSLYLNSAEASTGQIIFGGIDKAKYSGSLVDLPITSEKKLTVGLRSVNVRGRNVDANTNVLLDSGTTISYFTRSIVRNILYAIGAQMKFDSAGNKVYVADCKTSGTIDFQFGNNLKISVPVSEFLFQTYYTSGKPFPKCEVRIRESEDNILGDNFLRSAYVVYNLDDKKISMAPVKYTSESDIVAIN
Method: as §1, §2, §4, §5, §6

Sap1 of Candida albicans = Sap1 of Candida albicans (Candida albicans, UniProt P0CY27); test: Inhibition of proteolytic activity of Sap1 (resorufin-marked casein, fluorescence); conditions: for effectiveness against Sap1 compared with pepstatin A: versus pepstatin A
Sap1 of Candida albicans, sequence (P0CY27 51-391): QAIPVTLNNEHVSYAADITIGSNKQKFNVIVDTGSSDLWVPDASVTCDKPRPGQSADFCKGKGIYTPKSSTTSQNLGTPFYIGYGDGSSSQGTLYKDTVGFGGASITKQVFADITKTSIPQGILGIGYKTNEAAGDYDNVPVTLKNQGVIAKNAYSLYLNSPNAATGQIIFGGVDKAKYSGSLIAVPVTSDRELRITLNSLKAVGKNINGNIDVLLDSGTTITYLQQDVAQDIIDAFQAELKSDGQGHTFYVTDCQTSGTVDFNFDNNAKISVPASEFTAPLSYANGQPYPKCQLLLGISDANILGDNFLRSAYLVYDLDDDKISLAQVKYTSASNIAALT
Method: as §1, §2, §3, §4, §5, §6

Structure (SMILES) | IC50 (Sap6 of Candida albicans) | IC50 (Sap3 of Candida albicans) | IC50 (Sap5) | effect on Sap 5 (Sap5; versus pepstatin A) | IC50 (Sap1 of Candida albicans) | effectiveness against Sap1 compared with pepstatin A (Sap1 of Candida albicans) | effect on Sap 6 (Sap6 of Candida albicans) | specificity for Sap3 (Sap3 of Candida albicans; versus Sap1 and Sap6) | concentration equally effective in inhibiting Sap1, fold less than that of amprenavir (Sap1 of Candida albicans; versus amprenavir)
CCCC[C@H](NC(=O)[C@H](Cc1ccccc1)NC(=O)CC(C)C)C(=O)N[C@@H](CC(C)C)[C@@H](O)CC(=O)N[C@@H](CCCCN)C(=O)N[C@@H](CC(C)C)[C@@H](O)CC(=O)O [Compound K, (N-Iva-Phe)-Nle-Sta-Lys-Sta] (Isovaleryl-F[Nle][Sta]K[Sta]-OH) | ~50 nM | 20 nM | ~5 nM | increased effect on Sap 5 | < 5 nM | more effective against Sap1 than pepstatin A itself |  |  | 
Cc1c(O)cccc1C(=O)N[C@@H](CSc1ccccc1)[C@H](O)CN1C[C@H]2CCCC[C@H]2C[C@H]1C(=O)NC(C)(C)C [Nelfinavir, reference compound] |  | > 312000 nM |  |  | ~250000 nM |  |  |  | 
CC(C)CC(=O)N[C@H](C(=O)N[C@H](C(=O)N[C@@H](CC(C)C)[C@@H](O)CC(=O)N[C@@H](CCCNC(=N)N)C(=O)N[C@@H](CC(C)C)[C@@H](O)CC(=O)O)C(C)C)C(C)C [P1'(Arg)-pepstatin, (N-Iva-Val)-Val-Sta-Arg-Sta] (Isovaleryl-VV[Sta]R[Sta]-OH) | < 5 nM | < 5 nM |  |  | ~10 nM |  | increased effects on Sap 6 |  | 
CC(C)CC(=O)N[C@H](C(=O)N[C@H](C(=O)N[C@@H](CC(C)C)[C@@H](O)CC(=O)N[C@@H](CCN)C(=O)N[C@@H](CC(C)C)[C@@H](O)CC(=O)O)C(C)C)C(C)C [P1'(Dab)-pepstatin, (N-Iva-Val)-Val-Sta-Dab-Sta] (Isovaleryl-VV[Sta][Dab][Sta]-OH) | > 500 nM | ~20 nM |  |  | ~400 nM |  |  | very high specificity for Sap3 | 
CC(C)CC(=O)N[C@H](C(=O)N[C@H](C(=O)N[C@@H](CC(C)C)[C@@H](O)CC(=O)N[C@@H](CCCCN)C(=O)N[C@@H](CC(C)C)[C@@H](O)CC(=O)O)C(C)C)C(C)C [P1'(Lys)-pepstatin, (N-Iva-Val)-Val-Sta-Lys-Sta] (Isovaleryl-VV[Sta]K[Sta]-OH) | ~7 nM | < 5 nM |  |  | < 5 nM | more effective against Sap1 than pepstatin A itself |  |  | 1000 fold
CC(C)CC(=O)N[C@H](C(=O)N[C@H](C(=O)N[C@@H](CC(C)C)[C@@H](O)CC(=O)N[C@@H](CCCN)C(=O)N[C@@H](CC(C)C)[C@@H](O)CC(=O)O)C(C)C)C(C)C [P1'(Orn)-pepstatin, (N-Iva-Val)-Val-Sta-Orn-Sta] (Isovaleryl-VV[Sta][Orn][Sta]-OH) | ~30 nM | ~15 nM |  |  | ~20 nM |  |  |  | 
CC[C@H](NC(=O)[C@@H](NC(=O)CC(C)C)C(C)C)C(=O)N[C@@H](CC(C)C)[C@@H](O)CC(=O)N[C@@H](C)C(=O)N[C@@H](CC(C)C)[C@@H](O)CC(=O)O [P2(Abu)-pepstatin, (N-Iva-Val)-Abu-Sta-Ala-Sta, reference compound] (Isovaleryl-V[Abu][Sta]A[Sta]-OH) | ~20 nM | < 5 nM |  |  | ~50 nM |  |  |  | 
CC(C)CC(=O)N[C@H](C(=O)N[C@@H](CC(C)(F)F)C(=O)N[C@@H](CC(C)C)[C@@H](O)CC(=O)N[C@@H](C)C(=O)N[C@@H](CC(C)C)[C@@H](O)CC(=O)O)C(C)C [P2(DfpGly)-pepstatin, (N-Iva-Val)-DfpGly-Sta-Ala-Sta] (Isovaleryl-V[X1][Sta]A[Sta]-OH) | ~15 nM | ~5 nM |  |  | ~20 nM |  |  |  | 
CC(C)CC(=O)N[C@H](C(=O)N[C@@H](CC(C)C)C(=O)N[C@@H](CC(C)C)[C@@H](O)CC(=O)N[C@@H](C)C(=O)N[C@@H](CC(C)C)[C@@H](O)CC(=O)O)C(C)C [P2(Leu)-pepstatin, (N-Iva-Val)-Leu-Sta-Ala-Sta, reference compound] (Isovaleryl-VL[Sta]A[Sta]-OH) | ~200 nM | 100 nM |  |  | > 500 nM |  |  |  | 
CC(C)CC(=O)N[C@H](C(=O)N[C@@H](CCCCN)C(=O)N[C@@H](CC(C)C)[C@@H](O)CC(=O)N[C@@H](C)C(=O)N[C@@H](CC(C)C)[C@@H](O)CC(=O)O)C(C)C [P2(Lys)-pepstatin, (N-Iva-Val)-Lys-Sta-Ala-Sta] (Isovaleryl-VK[Sta]A[Sta]-OH) | 50 nM | ~100 nM | ~20 nM |  | > 500 nM |  |  |  | 
CCCC[C@H](NC(=O)[C@@H](NC(=O)CC(C)C)C(C)C)C(=O)N[C@@H](CC(C)C)[C@@H](O)CC(=O)N[C@@H](C)C(=O)N[C@@H](CC(C)C)[C@@H](O)CC(=O)O [P2(Nle)-pepstatin, (N-Iva-Val)-N/e-Sta-Ala-Sta] (Isovaleryl-V[Nle][Sta]A[Sta]-OH) | ~15 nM | < 5 nM | 10 nM |  | ~10 nM |  |  |  | 
CC(C)CC(=O)N[C@H](C(=O)N[C@@H](CC(F)(F)F)C(=O)N[C@@H](CC(C)C)[C@@H](O)CC(=O)N[C@@H](C)C(=O)N[C@@H](CC(C)C)[C@@H](O)CC(=O)O)C(C)C [P2(TfeGly)-pepstatin, (N-Iva-Val)-TfeGly-Sta-Ala-Sta] (Isovaleryl-V[Abu(4,4,4-F3)][Sta]A[Sta]-OH) | ~20 nM | < 5 nM |  |  | ~50 nM |  |  |  | 
CC(C)CC(=O)N[C@@H](CC(C)C)C(=O)N[C@H](C(=O)N[C@@H](CC(C)C)[C@@H](O)CC(=O)N[C@@H](C)C(=O)N[C@@H](CC(C)C)[C@@H](O)CC(=O)O)C(C)C [P3(Leu)-pepstatin, (N-Iva-Leu)-Val-Sta-Ala-Sta, reference compound] (Isovaleryl-LV[Sta]A[Sta]-OH) | > 500 nM | < 5 nM |  |  | > 500 nM |  |  |  | 
Cc1ccc(C[C@H](NC(=O)CC(C)C)C(=O)N[C@H](C(=O)N[C@@H](CC(C)C)[C@@H](O)CC(=O)N[C@@H](C)C(=O)N[C@@H](CC(C)C)[C@@H](O)CC(=O)O)C(C)C)cc1 [P3(MePhe)-pepstatin, (N-Iva-pMePhe)-Val-Sta-Ala-Sta] (Isovaleryl-[Phe(4-Me)]V[Sta]A[Sta]-OH) | ~20 nM | ~5 nM |  |  | ~10 nM |  |  |  | 
COc1ccc(C[C@H](NC(=O)CC(C)C)C(=O)N[C@H](C(=O)N[C@@H](CC(C)C)[C@@H](O)CC(=O)N[C@@H](C)C(=O)N[C@@H](CC(C)C)[C@@H](O)CC(=O)O)C(C)C)cc1 [P3(O—MeTyr)-pepstatin, (N-Iva-OMeTyr)-Val-Sta-Ala-Sta] (Isovaleryl-Y(Me)V[Sta]A[Sta]-OH) | ~10 nM | ~5 nM |  |  | > 500 nM |  |  |  | 
CC(C)CC(=O)N[C@@H](Cc1ccccc1)C(=O)N[C@H](C(=O)N[C@@H](CC(C)C)[C@@H](O)CC(=O)N[C@@H](C)C(=O)N[C@@H](CC(C)C)[C@@H](O)CC(=O)O)C(C)C [P3(Phe)-pepstatin, (N-Iva-Phe)-Val-Sta-Ala-Sta] (Isovaleryl-FV[Sta]A[Sta]-OH) | ~10 nM | < 5 nM |  |  | ~5 nM | more effective against Sap1 than pepstatin A itself |  |  | 
CC(C)CC(=O)N[C@@H](Cc1ccc(O)cc1)C(=O)N[C@H](C(=O)N[C@@H](CC(C)C)[C@@H](O)CC(=O)N[C@@H](C)C(=O)N[C@@H](CC(C)C)[C@@H](O)CC(=O)O)C(C)C [P3(Tyr)-pepstatin, (N-Iva-Tyr)-Val-Sta-Ala-Sta] (Isovaleryl-YV[Sta]A[Sta]-OH) | < 5 nM | < 5 nM |  |  | < 5 nM | more effective against Sap1 than pepstatin A itself | increased effects on Sap 6 |  | 
CC(C)CC(=O)N[C@@H](Cc1ccc(F)cc1)C(=O)N[C@H](C(=O)N[C@@H](CC(C)C)[C@@H](O)CC(=O)N[C@@H](C)C(=O)N[C@@H](CC(C)C)[C@@H](O)CC(=O)O)C(C)C [P3(p-FPhe)-pepstatin, (N-Iva-pFPhe)-Val-Sta-Ala-Sta] (Isovaleryl-[Phe(4-F)]V[Sta]A[Sta]-OH) | ~10 nM | < 5 nM |  |  | < 5 nM | more effective against Sap1 than pepstatin A itself |  |  | 
CC(C)(C)NC(=O)[C@@H]1C[C@@H]2CCCC[C@@H]2CN1C[C@@H](O)[C@H](Cc1ccccc1)NC(=O)[C@H](CC(N)=O)NC(=O)c1ccc2ccccc2n1 [Saquinavir, reference compound] | > 312000 nM | ~200000 nM |  |  | ~50000 nM |  |  |  | 
